Some test systems named below: A549 NSCLC; ACHN renal; BT-549 breast; CAKI-1 renal; COLO 205 colon; EKVX NSCLC; HL-60(TB) leukemia; HT29 colon; KM12 colon; LOX IMVI melanoma; MALME-3M melanoma; MDA-N; OVCAR-5 ovarian; PC-3 prostate; SF-539 CNS; SK-OV-3 ovarian; SNB-19 CNS; SR leukemia.
What all share (assay): NCI-60 cell line screen, 48 h

TGI data for 7 molecules are collected here from PubChem BioAssay (NCI).

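How tested: cells in 96-well plates exposed to compound for 48 hours at five concentrations. TGI: total growth inhibition.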 Some results are limits rather than exact numbers.

Turning to `C=C(CN)CO[Si](C)(C)C(C)(C)C`, the TGI in the test with A549 NSCLC, with ACHN renal, in the test with BT-549 breast, in the test with CAKI-1 renal, in the test with COLO 205 colon and in the test with EKVX NSCLC was above 100 µM throughout. The TGI with HL-60(TB) leukemia, in the test with HT29 colon, in the test on KM12 colon, in the test with LOX IMVI melanoma, in the test with MALME-3M melanoma and with MDA-N was above 100 µM each time. Besides, the TGI in the test on OVCAR-5 ovarian, in the test with PC-3 prostate, in the test on SF-539 CNS, with SK-OV-3 ovarian, in the test on SNB-19 CNS and in the test with SR leukemia was above 100 µM in each case.

Turning to `CCOC(=O)c1cc(C#N)[nH]c1-c1ccsc1`, the TGI in the test on A549 NSCLC is above 100 µM; with ACHN renal, above 100 µM; with BT-549 breast, above 100 µM; in the test with CAKI-1 renal it was above 100 µM; with COLO 205 colon, above 100 µM; in the test with EKVX NSCLC it was 84 µM. Moreover, the TGI in the test with HL-60(TB) leukemia is 41.5 µM; in the test with HT29 colon, 95.1 µM; in the test on KM12 colon, 69.6 µM; in the test with LOX IMVI melanoma it was above 100 µM; in the test on MALME-3M melanoma it was 77.3 µM; in the test with MDA-N, above 100 µM. Further, the TGI was above 100 µM with OVCAR-5 ovarian; 70.4 µM in the test on PC-3 prostate; 77.1 µM in the test with SF-539 CNS; above 100 µM in the test with SK-OV-3 ovarian; above 100 µM in the test on SNB-19 CNS; 35.5 µM with SR leukemia.

As for `c1cc(C[S+]2CCCC2)sc1C[S+]1CCCC1`, the TGI in the test with A549 NSCLC, in the test on ACHN renal, with BT-549 breast, with CAKI-1 renal, with COLO 205 colon and in the test with EKVX NSCLC was above 100 µM in each case. Besides, the TGI in the test with HL-60(TB) leukemia, with HT29 colon, in the test on KM12 colon, with LOX IMVI melanoma, in the test with MALME-3M melanoma and in the test with MDA-N was above 100 µM each time. Further, the TGI with OVCAR-5 ovarian, in the test with PC-3 prostate, in the test on SF-539 CNS, in the test with SK-OV-3 ovarian, with SNB-19 CNS and with SR leukemia was above 100 µM in each case.

In the case of `O=C(OCc1ccccc1)N1CCCc2c(n(S(=O)(=O)c3ccccc3)c3ccccc23)C1`, the TGI with A549 NSCLC, in the test with ACHN renal, in the test with BT-549 breast, in the test on CAKI-1 renal, in the test on COLO 205 colon and in the test with EKVX NSCLC was above 100 µM in each case. Moreover, the TGI in the test with HL-60(TB) leukemia, with HT29 colon, in the test on KM12 colon, in the test with LOX IMVI melanoma, in the test with MALME-3M melanoma and in the test on MDA-N was above 100 µM in each case. The TGI in the test on OVCAR-5 ovarian, in the test on PC-3 prostate, with SF-539 CNS, in the test with SK-OV-3 ovarian, in the test with SNB-19 CNS and in the test on SR leukemia was above 100 µM throughout.

In the case of `COC(=O)/C=C1/OC(c2ccc(C)cc2)=C(Cl)C1=O`, the TGI in the test on A549 NSCLC was 40.4 µM; in the test on ACHN renal it was 30.4 µM; in the test with BT-549 breast it was 42.2 µM; in the test with CAKI-1 renal it was 29.7 µM; in the test with COLO 205 colon it was 23.7 µM; in the test with EKVX NSCLC it was 42.3 µM. The TGI in the test on HL-60(TB) leukemia worked out at 10.2 µM; in the test with HT29 colon, 32.6 µM; with KM12 colon, 30.7 µM; in the test with LOX IMVI melanoma, 23.7 µM; with MALME-3M melanoma it was 33.5 µM; in the test with MDA-N, 33.1 µM. Also, the TGI came to 35 µM in the test on OVCAR-5 ovarian; 27.7 µM in the test on PC-3 prostate; 35.5 µM in the test on SF-539 CNS; 59.3 µM in the test with SK-OV-3 ovarian; 52.2 µM in the test on SNB-19 CNS; 9.06 µM with SR leukemia.

For the molecule `O=c1cc(-c2cccc(OCc3ccccc3)c2)[nH]c2cc3c(cc12)OCO3`, the TGI was above 22.7 µM in the test with A549 NSCLC; 64.3 µM in the test on ACHN renal; above 100 µM with BT-549 breast; above 50.8 µM in the test with CAKI-1 renal; above 22.7 µM in the test on COLO 205 colon; above 100 µM in the test on EKVX NSCLC. For the same molecule, the TGI in the test on HL-60(TB) leukemia was 0.412 µM; with HT29 colon it was above 97.3 µM; in the test on KM12 colon, above 100 µM; with LOX IMVI melanoma, above 100 µM; in the test on MALME-3M melanoma, above 100 µM; in the test with MDA-N it was 0.417 µM. Further, the TGI with OVCAR-5 ovarian was above 100 µM; in the test with PC-3 prostate it was above 100 µM; in the test on SF-539 CNS, 0.564 µM; in the test with SK-OV-3 ovarian it was 4.23 µM; in the test with SNB-19 CNS it was 14.9 µM; with SR leukemia, above 100 µM.

Regarding `COc1ccc(C)cc1Nc1nnc(-c2ccc(N)cc2)s1`, the TGI in the test on A549 NSCLC, in the test with ACHN renal, in the test with BT-549 breast, in the test on CAKI-1 renal, with COLO 205 colon and with EKVX NSCLC was above 100 µM throughout. The TGI with HL-60(TB) leukemia, in the test with HT29 colon, with KM12 colon, with LOX IMVI melanoma, in the test on MALME-3M melanoma and in the test with MDA-N was above 100 µM throughout. Further, the TGI with OVCAR-5 ovarian, in the test with PC-3 prostate, in the test on SF-539 CNS, in the test on SK-OV-3 ovarian, in the test on SNB-19 CNS and with SR leukemia was above 100 µM in each case.
